Like-named read-outs stand apart in the source and are kept apart here.

One series has as its system calf thymus DNA (CT-DNA). Kind of series: Thermal denaturation studies with duplex-form calf thymus DNA. It counts as binding. To be noted: [PND]/[DNA] molar ratio 1:5, CT-DNA 100 μM, ligand 20 μM, aqueous sodium phosphate buffer pH 7; for ΔTm after incubation at 37° C. for 0 hr: 0 hr at 37° C.; for ΔTm after incubation at 37° C. for 18 hrs: 18 hrs at 37° C. The method, then:
Compounds have been subjected to thermal denaturation studies with duplex-form calf thymus DNA (CT-DNA) using an modification of a reported procedure (Newman, M. S. Carcinog-compr. Surv. 1976, 1, 203; (b) Hecht, S. S.; Loy, M.; Hoffman, Carcinog-compr. Surv. 1976, 1, 325). Working solutions in aqueous buffer (10 mM NaH2PO4/Na2HPO4, 1 mM Na2EDTA, pH 7.00+0.01) containing CT-DNA (100 μm in phosphate) and the PND (pyrrolo naphtha diazepine) (20 μm) have been prepared by addition of concentrated PND (pyrrolo naphtha diazepine) solutions in DMSO to obtain a fixed [PND]/[DNA] molar ratio of 1:5. The DNA-PND (pyrrolo naphtha diazepine) solutions have been incubated at 37° C. for 0 and 18 h prior to analysis. Samples have been monitored at 260 nm using a Beckman DU-800 spectrophotometer fitted with high performance temperature controller, and heated at 1° C. min in the 40-110° C. range. DNA helix→coil transition temperatures (Tm) have been obtained from the maxima in the d(A260)/dT derivative plots. Drug-induced alterations in DNA melting behavior are given by: ΔTm=Tm(DNA+PND)−Tm(DNA alone), where the Tm value for the PND-free CT-DNA is 69.1±0.01.
The DNA binding activity for these novel substituted piperazine linked pyrrolo naphtho diazepine hybrids has been examined by thermal denaturation studies using calf thymus (CT) DNA. […] The data for some of the compounds are included in Table 1 for comparison.

Series [1] has as its system A549 lung cancer cell line. Kind of series: In vitro anticancer activity, MTT assay. To be noted: for in-vitro cytotoxicity in lung cancer cell line (A549): result in words. It counts as cell-based, human. As to the method:
(§1) In vitro biological activity studies were carried out at the pharmacology division, IICT, Hyderabad. The compounds were evaluated for in vitro anticancer activity against eight tumour cell lines derived from […] cancer types (breast, lung, liver, skeletal, kidney, prostrate, small intestine) as shown in Table 2. For each compound, dose response curves for each cell line were measured at a minimum of five concentrations at 10 fold dilutions. A protocol of 48 h continuous drug exposure was used and a MTT assay was used to estimate cell viability or growth. The concentration causing 50% inhibition (IC50) compared with the control was calculated. Some of the compounds have been evaluated for their in vitro cytotoxicity in eight cell lines from seven human cancer types. The results are expressed as IC50 determined relative to that of untreated control cells (Table-2).
On the technique in general: Tetrazolium assays rely on reduction of a dye to a coloured formazan, in cell work by metabolically active cells.

Series [2] concerns HEPG2 liver cancer cell line. Description: In vitro anticancer activity, MTT assay. To be noted: for in-vitro cytotoxicity in liver cancer cell line (HEPG2): result in words. Type of series: cell-based, human. The method, then:
as §1

The subject of series [3] is MCF7 breast cancer cell line. Kind of series: In vitro anticancer activity, MTT assay. Type of series: cell-based, human. To be noted: for IC50: breast cancer cell line, MTT, 48 h continuous drug exposure; for in-vitro cytotoxicity in breast cancer cell line (MCF-7): result in words. The method, then:
as §1

Series [4] has as its system NCIH460 large cell lung cancer cell line. Kind of series: In vitro anticancer activity, MTT assay. Type of series: cell-based, human. To be noted: for IC50: large cell lung cancer cell line, MTT, 48 h continuous drug exposure; for in-vitro cytotoxicity in large cell lung cancer cell line (NCIH460): result in words. As to the method: as §1
Series [5] concerns PC-3 prostrate cancer cell line. Description: In vitro anticancer activity, MTT assay. Type of series: cell-based, human. The conditions noted are these: for IC50: prostrate cancer cell line, MTT, 48 h continuous drug exposure; for in-vitro cytotoxicity in prostrate cancer cell line (PC-3): result in words. As to the method: as §1
Series [6] in a line: In vitro anticancer activity, MTT assay. Type of series: cell-based. The conditions noted are these: kidney cancer cell line, MTT, 48 h continuous drug exposure. As to the method:
as §1

For series [7], the system named is COS-1 kidney cancer cell line. Description: In vitro anticancer activity, MTT assay. To be noted: for IC50: COS-1, range over the listed compounds, exposure period of at least 48 hrs, read-out: IC50 against kidney cancer cell lines; for in-vitro cytotoxicity in kidney cancer cell line (COS-1): result in words. It counts as cell-based. The method, then: as §1
Series [8] concerns IEC-6 small intestine cell line. Description: In vitro anticancer activity, MTT assay. Type of series: cell-based. The conditions noted are these: for in-vitro cytotoxicity in small intestine cancer cell line (IEC-6): result in words. As to the method: as §1
Series [9] deals with L-6 skeletal cancer cell line. Kind of series: In vitro anticancer activity, MTT assay. Type of series: cell-based. The conditions noted are these: result in words. As to the method: as §1
The next series has as its system L-6. Kind of series: In vitro anticancer activity, MTT assay. It counts as cell-based. The conditions noted are these: skeletal cancer cell line; MTT, 48 h continuous drug exposure. The method, then:
as §1

[10] abbreviates: Homo sapiens, A549, lung cancer cell line, MTT, 48 h continuous drug exposure, read-out: IC50 A549.
[11] abbreviates: Homo sapiens, A549, range over the listed compounds, exposure period of at least 48 hrs, read-out: IC50 against lung cancer cell lines.
The mark [12] stands for this setting: Homo sapiens, HepG2, liver cancer cell line, MTT, 48 h continuous drug exposure, read-out: IC50 HEPG2.
Setting [13] is: Homo sapiens, HepG2, range over the listed compounds, exposure period of at least 48 hrs, read-out: IC50 against liver cancer cell lines.
[14] abbreviates: IEC-6, range over the listed compounds, exposure period of at least 48 hrs, read-out: IC50 against small intestine cancer cell lines.
Where [15] appears, read: IEC-6, small intestine cell line, MTT, 48 h continuous drug exposure, read-out: IC50 IEC-6.
Where [16] appears, read: lung cancer cell line, MTT, 48 h continuous drug exposure, read-out: IC50 A549.
Setting [17] is: liver cancer cell line, MTT, 48 h continuous drug exposure, read-out: IC50 HEPG2.
[18] abbreviates: small intestine cell line, MTT, 48 h continuous drug exposure, read-out: IC50 IEC-6.

The IC50 is the concentration that gives 50% inhibition. Regarding `CCN1CCN(CCOc2cc3cc4c(cc3cc2OC)N=C[C@@H]2CCCN2C4=O)CC1` [15a, 9-Methoxy-8-[2-(4-ethylpiperazino)ethoxy]-(13aS)-1,2,3,13a-tetrahydro-5H-pyrrolo[2,1-c][1,4]naphthodiazepin-5-one], the “ΔTm after incubation at 37° C. for 0 hr” value with calf thymus DNA (CT-DNA) was 6.1 °C. The “ΔTm after incubation at 37° C. for 18 hrs” value (shortened to “ΔTm … for 18 hrs”) in the series on calf thymus DNA (CT-DNA) stood at 7.2 °C. Also, the IC50 in series [1] (setting [10]) was 540 nM; in [1] (setting [11]), 20 to 11900 nM; in series [2] (setting [12]) it was 200 nM; in series [2] (setting [13]) it was 20 to 7320 nM; in [3] (Homo sapiens, MCF7), 40 nM; in series [4] (Homo sapiens, NCI-H460), 1250 nM. The IC50 in series [5] (Homo sapiens) was 410 nM; in [6] (COS-1) it was 3660 nM; in [7] it was 800 to 4320 nM; in [8] (setting [14]), 10 to 5840 nM; in [8] (setting [15]) it was 130 nM; with L-6, 1870 nM. Moreover, in [1], the “in-vitro cytotoxicity in lung cancer cell line (A549)” value (from here on “in-vitro cytotoxicity … (A549)”) is “exhibiting in-vitro cytotoxicity”. The “in-vitro cytotoxicity in liver cancer cell line (HEPG2)” value (“in-vitro cytotoxicity … (HEPG2)” for short) in series [2] is given as “exhibiting in-vitro cytotoxicity”. In addition, in series [3], the “in-vitro cytotoxicity in breast cancer cell line (MCF-7)” value (shortened to “in-vitro cytotoxicity … (MCF-7)”) is “exhibiting in-vitro cytotoxicity”. For the same molecule, the “in-vitro cytotoxicity in large cell lung cancer cell line (NCIH460)” value (“in-vitro cytotoxicity … (NCIH460)” for short) in series [4] is on record as “exhibiting in-vitro cytotoxicity”. Besides, in series [5], the “in-vitro cytotoxicity in prostrate cancer cell line (PC-3)” value (shortened to “in-vitro cytotoxicity … (PC-3)”) is given as “exhibiting in-vitro cytotoxicity”. Besides, the “in-vitro cytotoxicity in kidney cancer cell line (COS-1)” value (shortened to “in-vitro cytotoxicity … (COS-1)”) in series [7] was “exhibiting in-vitro cytotoxicity”. Further, the “in-vitro cytotoxicity in small intestine cancer cell line (IEC-6)” value (“in-vitro cytotoxicity … (IEC-6)” for short) in [8] was “exhibiting in-vitro cytotoxicity”. In addition, the “in-vitro cytotoxicity in skeletal cancer cell line (L-6)” value (“in-vitro cytotoxicity … (L-6)” for short) in series [9] is “exhibiting in-vitro cytotoxicity”.
Turning to `COc1cc2cc3c(cc2cc1OCCN1CCN(c2ccccc2)CC1)C(=O)N1CCC[C@H]1C=N3` [19a, 9-Methoxy-8-[2-(4-phenylpiperazino)ethoxy]-(3aS)-1,2,3,13a-tetrahydro-5H-pyrrolo[2,1-c][1,4]naphthodiazepin-5-one], the “ΔTm after incubation at 37° C. for 0 hr” value with calf thymus DNA (CT-DNA) was 6.5 °C. In addition, the “ΔTm … for 18 hrs” value in the series on calf thymus DNA (CT-DNA) came to 7.3 °C. For the same molecule, the IC50 in series [1] (setting [10]) was 9900 nM; in series [1] (setting [11]), 20 to 11900 nM; in [2] (setting [12]), 40 nM; in [2] (setting [13]), 20 to 7320 nM; in series [3] (Homo sapiens, MCF7), 180 nM; in [4] (Homo sapiens, NCI-H460), 6 nM. Besides, the IC50 in [5] (Homo sapiens) was 300 nM; in [6] (COS-1) it was 800 nM; in series [7] it was 800 to 4320 nM; in [8] (setting [14]), 10 to 5840 nM; in series [8] (setting [15]), 10 nM; with L-6 it was 260 nM. Further, the “in-vitro cytotoxicity … (A549)” value in series [1] is given as “exhibiting in-vitro cytotoxicity”. The “in-vitro cytotoxicity … (HEPG2)” value in series [2] was “exhibiting in-vitro cytotoxicity”. For the same molecule, the “in-vitro cytotoxicity … (MCF-7)” value in series [3] is reported as “exhibiting in-vitro cytotoxicity”. Moreover, in [4], the “in-vitro cytotoxicity … (NCIH460)” value is “exhibiting in-vitro cytotoxicity”. For the same molecule, in series [5], the “in-vitro cytotoxicity … (PC-3)” value is “exhibiting in-vitro cytotoxicity”. For the same molecule, the “in-vitro cytotoxicity … (COS-1)” value in [7] was “exhibiting in-vitro cytotoxicity”. For the same molecule, in [8], the “in-vitro cytotoxicity … (IEC-6)” value is recorded as “exhibiting in-vitro cytotoxicity”. Besides, in series [9], the “in-vitro cytotoxicity … (L-6)” value is recorded as “exhibiting in-vitro cytotoxicity”.
Take `COc1cc2cc3c(cc2cc1OCCN1CCN(c2ccccn2)CC1)N=C[C@@H]1CCCN1C3=O` [12a, 8-Methoxy-9-(2-[4-(2-pyridyl)piperazino]ethoxy)-(13aS)-1,2,3,13a-tetrahydro-5H-pyrrolo[2,1-c][1,4]naphthodiazepin-5-one]: the “ΔTm after incubation at 37° C. for 0 hr” value in the series with calf thymus DNA (CT-DNA) was 5.8 °C. For the same molecule, the “ΔTm … for 18 hrs” value in the series on calf thymus DNA (CT-DNA) was 7.1 °C. Further, the IC50 in [1] (setting [16]) was found to be 320 nM; in [2] (setting [17]) it was 220 nM; in series [3] it was 10 nM; in series [4] it was 240 nM; in series [5], 100 nM; in series [6] (read-out: IC50 COS-1), 4320 nM. In addition, the IC50 worked out at 160 nM in series [8] (setting [18]) and 860 nM with L-6. Also, the “in-vitro cytotoxicity … (A549)” value in [1] is given as “exhibiting in-vitro cytotoxicity”. Further, the “in-vitro cytotoxicity … (HEPG2)” value in series [2] is on record as “exhibiting in-vitro cytotoxicity”. The “in-vitro cytotoxicity … (MCF-7)” value in series [3] was “exhibiting in-vitro cytotoxicity”. Also, in [4], the “in-vitro cytotoxicity … (NCIH460)” value was “exhibiting in-vitro cytotoxicity”. The “in-vitro cytotoxicity … (PC-3)” value in [5] is reported as “exhibiting in-vitro cytotoxicity”. In [7], the “in-vitro cytotoxicity … (COS-1)” value is given as “exhibiting in-vitro cytotoxicity”. Besides, the “in-vitro cytotoxicity … (IEC-6)” value in series [8] was “exhibiting in-vitro cytotoxicity”. Also, in series [9], the “in-vitro cytotoxicity … (L-6)” value is “exhibiting in-vitro cytotoxicity”.
As for “9-Methoxy-8-(2-chloroethoxy)-(13aS)-1,2,3,13a-tetrahydro-5H-pyrrolo[2,1-c][1,4]naphthodiazepine-5-one [2a]”, in the series with calf thymus DNA (CT-DNA), the “ΔTm after incubation at 37° C. for 0 hr” value amounted to 7.1 °C. Besides, in the series on calf thymus DNA (CT-DNA), the “ΔTm … for 18 hrs” value worked out at 9.5 °C. Besides, the IC50 in series [1] (setting [16]) is 110 nM; in [2] (setting [17]), 20 nM; in series [3] it was 2 nM; in series [4], 20 nM; in series [5], 20 nM; in [6] (read-out: IC50 COS-1) it was 910 nM. Also, the IC50 in series [8] (setting [18]) came to 10 nM; in the series with L-6, 2 nM. In series [1], the “in-vitro cytotoxicity … (A549)” value was “exhibiting in-vitro cytotoxicity”. The “in-vitro cytotoxicity … (HEPG2)” value in series [2] is listed as “exhibiting in-vitro cytotoxicity”. The “in-vitro cytotoxicity … (MCF-7)” value in series [3] is listed as “exhibiting in-vitro cytotoxicity”. In [4], the “in-vitro cytotoxicity … (NCIH460)” value was “exhibiting in-vitro cytotoxicity”. Further, the “in-vitro cytotoxicity … (PC-3)” value in series [5] was “exhibiting in-vitro cytotoxicity”. For the same molecule, the “in-vitro cytotoxicity … (COS-1)” value in series [7] is listed as “exhibiting in-vitro cytotoxicity”. Further, in [8], the “in-vitro cytotoxicity … (IEC-6)” value was “exhibiting in-vitro cytotoxicity”. In addition, the “in-vitro cytotoxicity … (L-6)” value in [9] was “exhibiting in-vitro cytotoxicity”.
